Results on nine compounds are retold here after patent publication US10981906B2, “Substituted pyrrolopyridine JAK inhibitors and methods of making and using the same” (ACLARIS THERAPEUTICS, INC., priority 2017, dated 2021).

Each structure is given as a SMILES string. pIC50: −log10 of the molar value. Read-outs that look alike come from different tables or passages of the source. A value given as a limit tells only on which side of the number the result lay.

One test concerns the target JAK1 (Homo sapiens (Human), UniProt P23458). Nature of the test: JAK1 enzyme activity assay (Thermo Fisher SelectScreen Z-lyte). Format: biochemical. The settings on record: 1 hour kinase reaction, read-out: JAK1 Inhibition IC50. As to the method: The inhibitory potency of candidate compounds of JAK1 done at Thermo Fisher Scientific in their Selectscreen using a Z-lyte assay. The 2×JAK1/Tyr 06 mixture is prepared in 50 mM HEPES pH 6.5, 0.01% BRIJ-35, 10 mM MgCl2, 1 mM EGTA, 0.02% NaN3. The final 10 μL of the Kinase Reaction consists of 21.2-91.5 ng JAK1 and 2 μM Tyr 06 in 50 mM HEPES pH 7.0, 0.01% BRIJ-35, 10 mM MgCl2, 1 mM EGTA, 0.01% NaN3. After the 1 hour Kinase Reaction incubation, 5 μL of a 1:128 dilution of Development Reagent is added.
(§1) Background signal is defined in the absence of enzyme and uninhibited signal is defined in the presence of vehicle (2% DMSO) alone. Compounds were evaluated in an 11 point dose-response ranging from […] to 0.34 nM. IC50 values of compounds are determined using a 4 parameter logistical fit of emission ratio as a function of the concentration of compound.

Test [1] relates to IL-2 stimulated STAT5 phosphorylation on Tyr694 (JAK1/3). Kind of test: JAK1/3 cellular target modulation: IL-2 stimulated phospho-STAT5 in PBMC. It counts as cell-based. The settings on record: IL-2 25 ng/ml, 1 hour compound preincubation, read-out: IL2-STAT5 Inhibition IC50. From the text: (§2) Target modulation was based upon the ability of a compound to inhibit JAK isoform specific phosphorylation of selected substrates. IL-2 stimulated STAT5 phosphorylation on Tyr694 was used to assess JAK1/3 compound selectivity. GM-CSF stimulated STAT5 phosphorylation on Tyr694 was used to assess JAK2 compound selectivity. IFNγ stimulated STAT1 phosphorylation on Tyr701 was used to assess JAK1/2 compound selectivity. For all three assays, human PBMC from frozen stocks were thawed, pelleted, resuspended in complete media (90% RPMI, 10% heat inactivated FBS, 10 mM HEPES, 47 μM 2-ME, pen/strep) and placed in wells of a 96 well V-bottom plate at 200,000 per well in 120 μl complete media. Compounds were added as 15 μl per well of 10× working stock solutions in complete media with 1% DMSO (or medium with 1% DMSO for controls) and placed on a plate shaker in a 37° C. incubator with 5% CO2 for 1 hour with gentle shaking (setting of 3). Stimulation used the addition of soluble cytokines. For the JAK1/3 phospho-STAT5 assay, 15 μl of 10× working stock recombinant human IL-2 was added to a final concentration of 25 ng/ml. For the JAK2 phospho-STAT5 assay, 15 μl of 10× working stock recombinant human GM-CSF was added to a final concentration of 5 ng/ml. For the JAK1/2 phospho-STAT1 assay, 15 μl of 10× working stock of recombinant human IFNγ was added to a final concentration of 10 ng/ml. Plates were then placed back on the plate shaker in the incubator for an additional 5, 5 and 10 minutes respectively upon which the plates were removed from the incubator, sealed with a plate sealer and the cells pelleted at 400×g for 5 minutes. After pelleting, the media was removed by aspiration and the cells were lysed in ELISA specific cell lysis buffer. The levels of phospho-STAT5 were determined using a Phospho (Tyr694)/Total STAT5a,b Whole Cell Lysate kit from Meso Scale Discovery. Levels of phospho-STAT1 were determined using a CST-PathScan Phospho-STAT1 (Tyr701) Sandwich ELISA kit.

In test [2] the test system is IFNγ stimulated STAT1 phosphorylation on Tyr701 (JAK1/2). Nature of the test: JAK1/2 cellular target modulation: IFNγ stimulated phospho-STAT1 in PBMC. It counts as cell-based. The settings on record: IFNγ 10 ng/ml, 1 hour compound preincubation, read-out: Infγ-STAT1 IC50.
Source text: as §2

The target of a further test is JAK3 (a.a. 781-1124) (Homo sapiens (Human), UniProt P52333). Kind of test: JAK3 enzyme activity assay (SRCtide phosphorylation, Caliper). The settings on record: 2.5 nM JAK3, 1 μM SRCtide, 1 uM ATP, 40 minutes; read-out: JAK3 Inhibition IC50. Format: biochemical. As to the method:
The activity of JAK3 (a.a. 781-1124, ThermoFisher) was quantified by measuring the phosphorylation of SRCtide (FAM-GEEPLYWSFPAKKK-NH2). Kinase reactions were run in a 384-well Greiner plate with 2% final DMSO concentration under the buffer conditions of 20 mM HEPES, pH 7.5, 10 mM MgCl2, 0.01% BSA, and 0.0005% Tween-20. The kinase reaction components were 2.5 nM JAK3, 1 μM SRCtide peptide and 1 uM ATP. Examples were tested in dose-response starting at 2 μM (11 concentrations, 3-fold serial dilution, duplicate reactions). The reactions were incubated at room temperature for 40 minutes, then stopped by adding a 1:1 volume of 30 mM EDTA in 20 mM HEPES, pH 7.5 (15 mM EDTA final). After the reaction was stopped, the phosphorylated and unphosphorylated peptides were separated and quantified using a Caliper LC3000/EZ-Reader system and HTS Well Analyzer Software (Caliper, A PerkinElmer Company, Hopkinton, Mass.). GraFit (Erithacus Software Ltd., Horley, U.K.) was used to calculate inhibitor potency by fitting dose-response data to the 4-parameter logistical IC50 equation.
as §1

JAK3 (a.a. 781-1124), sequence (P52333 781-1124): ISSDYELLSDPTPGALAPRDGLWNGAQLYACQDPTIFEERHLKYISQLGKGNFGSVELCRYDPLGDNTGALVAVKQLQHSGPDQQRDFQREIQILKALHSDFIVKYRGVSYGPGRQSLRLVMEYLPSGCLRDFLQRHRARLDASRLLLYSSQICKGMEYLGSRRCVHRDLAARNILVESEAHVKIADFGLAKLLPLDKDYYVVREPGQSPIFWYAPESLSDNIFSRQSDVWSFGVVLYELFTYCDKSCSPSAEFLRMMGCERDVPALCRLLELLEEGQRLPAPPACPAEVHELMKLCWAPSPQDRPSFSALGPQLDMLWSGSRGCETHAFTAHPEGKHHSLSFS
JAK1, sequence (P23458 whole entry): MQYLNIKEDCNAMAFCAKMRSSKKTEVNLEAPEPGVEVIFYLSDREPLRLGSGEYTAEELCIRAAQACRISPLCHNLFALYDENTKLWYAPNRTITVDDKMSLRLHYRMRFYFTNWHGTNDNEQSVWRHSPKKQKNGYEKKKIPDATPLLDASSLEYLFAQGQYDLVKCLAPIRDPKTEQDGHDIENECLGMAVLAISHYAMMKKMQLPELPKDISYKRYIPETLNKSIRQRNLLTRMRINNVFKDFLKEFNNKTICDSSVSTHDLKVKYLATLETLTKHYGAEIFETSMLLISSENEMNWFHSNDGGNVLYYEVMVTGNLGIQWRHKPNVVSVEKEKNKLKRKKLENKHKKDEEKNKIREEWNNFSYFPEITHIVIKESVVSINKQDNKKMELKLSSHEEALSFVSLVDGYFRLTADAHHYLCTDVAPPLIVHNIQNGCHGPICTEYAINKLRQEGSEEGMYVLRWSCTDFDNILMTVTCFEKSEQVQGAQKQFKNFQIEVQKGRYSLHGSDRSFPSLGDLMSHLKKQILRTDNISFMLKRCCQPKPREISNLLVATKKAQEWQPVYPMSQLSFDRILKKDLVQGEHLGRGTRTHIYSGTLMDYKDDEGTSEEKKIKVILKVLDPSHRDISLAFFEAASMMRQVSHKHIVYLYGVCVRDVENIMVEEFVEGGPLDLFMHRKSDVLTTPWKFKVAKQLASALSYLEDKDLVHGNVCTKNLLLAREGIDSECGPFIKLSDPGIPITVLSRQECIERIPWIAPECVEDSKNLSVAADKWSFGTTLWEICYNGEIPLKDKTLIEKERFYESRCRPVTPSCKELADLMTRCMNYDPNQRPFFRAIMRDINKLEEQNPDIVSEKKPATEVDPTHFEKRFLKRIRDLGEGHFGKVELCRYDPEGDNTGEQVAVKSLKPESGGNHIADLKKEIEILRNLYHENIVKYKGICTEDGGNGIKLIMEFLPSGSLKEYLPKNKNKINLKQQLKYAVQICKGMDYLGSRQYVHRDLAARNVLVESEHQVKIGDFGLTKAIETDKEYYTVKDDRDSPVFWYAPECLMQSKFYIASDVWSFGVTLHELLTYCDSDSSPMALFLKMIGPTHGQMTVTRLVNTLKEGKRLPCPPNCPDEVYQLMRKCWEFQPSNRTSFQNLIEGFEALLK

A word on the pIC50: it is the IC50 on a negative log10 scale, so that one unit is a factor of ten. Take `CCOC(=O)c1cnc2[nH]ccc2c1NC1CCCC(CCC#N)C1` (stereo not drawn) [Example 132, ethyl 4-((3-(2-cyanoethyl)cyclohexyl)amino)-1H-pyrrolo[2,3-b]pyridine-5-carboxylate]: the pIC50 on JAK1 is at least 8.00; in test [1] (Homo sapiens, PBMC) it was at least 7.00; in test [2] (Homo sapiens, PBMC), 6.00 to 7.00; on JAK3 (a.a. 781-1124), at least 8.00.
With `CCCOC(=O)c1cnc2[nH]ccc2c1N[C@@H]1CCCN(C(=O)CC#N)C1` [Example 130, propyl (R)-4-((1-(2-cyanoacetyl)piperidin-3-yl)amino)-1H-pyrrolo[2,3-b]pyridine-5-carboxylate], the pIC50 was at least 8.00 on JAK1; 6.00 to 7.00 in test [1] (Homo sapiens, PBMC); 6.00 to 7.00 in test [2] (Homo sapiens, PBMC); at least 8.00 at JAK3 (a.a. 781-1124).
Turning to `COCCOC(=O)c1cnc2[nH]ccc2c1N[C@@H]1CCC[C@H](CCC#N)C1` (single isomer, unassigned; enantiomer 2) [Example 150, cis 2-methoxyethyl 4-((3-(2-cyanoethyl)cyclohexyl)amino)-1H-pyrrolo[2,3-b]pyridine-5-carboxylate, enantiomer 2], the pIC50 on JAK1 is at least 8.00; in test [1] (Homo sapiens, PBMC), at least 7.00; in test [2] (Homo sapiens, PBMC) it was 6.00 to 7.00; on JAK3 (a.a. 781-1124) it was at least 8.00.
Turning to `N#CCC[C@H]1CCC[C@H](Nc2c(C(=O)O)cnc3[nH]ccc23)C1` [Example 147, 4-(((1S,3R)-3-(2-cyanoethyl)cyclohexyl)amino)-1H-pyrrolo[2,3-b]pyridine-5-carboxylic acid], the pIC50 at JAK1 is 6.00 to 7.00; in test [1] (Homo sapiens, PBMC), 6.00 to 7.00; in test [2] (Homo sapiens, PBMC), under 6.00; at JAK3 (a.a. 781-1124) it was 6.00 to 7.00.
As for `CCCOC(=O)c1cnc2[nH]ccc2c1N[C@H]1CN(C(=O)CC#N)CC[C@H]1C` [Example 125, propyl 4-(((3R,4R)-1-(2-cyanoacetyl)-4-methylpiperidin-3-yl)amino)-1H-pyrrolo[2,3-b]pyridine-5-carboxylate], the pIC50 on JAK1 is at least 8.00; in test [1] (Homo sapiens, PBMC) it was at least 7.00; in test [2] (Homo sapiens, PBMC) it was 6.00 to 7.00; at JAK3 (a.a. 781-1124) it was at least 8.00.
Turning to `CCOC(=O)c1cnc2[nH]ccc2c1N[C@@H]1CC[C@@H](O)C1` (single isomer, unassigned) [Example 72, (trans)-ethyl 4-((3-hydroxycyclopentyl)amino)-1H-pyrrolo [2,3-b]pyridine-5-carboxylate], the pIC50 on JAK1 was 7.00 to 8.00; in test [1] (Homo sapiens, PBMC), 6.00 to 7.00; in test [2] (Homo sapiens, PBMC) it was under 6.00; on JAK3 (a.a. 781-1124), 7.00 to 8.00.
As to `CCOC(=O)c1cnc2[nH]ccc2c1N[C@H]1CC[C@H](CS(=O)(=O)NC)CC1` [Example 92, ethyl 4-(((1r,4r)-4-((N-methylsulfamoyl)methyl)cyclohexyl)amino)-1H-pyrrolo[2,3-b]pyridine-5-carboxylate], the pIC50 was at least 8.00 on JAK1; at least 7.00 in test [1] (Homo sapiens, PBMC); 6.00 to 7.00 in test [2] (Homo sapiens, PBMC); at least 8.00 at JAK3 (a.a. 781-1124).
`COCCOC(=O)c1cnc2[nH]ccc2c1N[C@H]1CCC[C@H](CCC#N)C1` (racemic) [Example 148, racemic, trans-2-methoxyethyl 4-((3-(2-cyanoethyl)cyclohexyl)amino)-1H-pyrrolo[2,3-b]pyridine-5-carboxylate]: the pIC50 at JAK1 is 7.00 to 8.00; in test [1] (Homo sapiens, PBMC), 6.00 to 7.00; in test [2] (Homo sapiens, PBMC), 6.00 to 7.00; at JAK3 (a.a. 781-1124) it was at least 8.00.
Take `CCOC(=O)c1cnc2[nH]ccc2c1NC1CCC(CCC#N)C1` (single isomer, unassigned; stereoisomer 2) [Example 155, Ethyl 4-((3-(2-cyanoethyl)cyclopentyl)amino)-1H-pyrrolo[2,3-b]pyridine-5-carboxylate, single stereoisomer 2]: the pIC50 at JAK1 is 6.00 to 7.00; in test [1] (human PBMC), 6.00 to 7.00; in test [2] (human PBMC), under 6.00; at JAK3 (a.a. 781-1124), 7.00 to 8.00.
